ChEMBL document CHEMBL2331311, “Photoprotection of DNA (in vitro) by acyclothymidine dinucleosides” (Bioorg Med Chem Lett, 2013)
Calls of active or inactive are those of the source. The rule behind the calls is not given here.

Columns and labels:
[1] = Cytotoxicity against mouse Cloudman S91 cells assessed as cell viability after 72 hrs by MTT assay; assay type: cell-based; conditions: S91, 72 h
[2] = system: MCF-10A; assay: Cytotoxicity against human MCF10A cells assessed as cell viability after 72 hrs by MTT assay; assay type: cell-based
[3] = Photoprotection against UV light-induced Escherichia coli pEGFP-C1 DNA damage at 10 mM treated in 1N NaOH solution measured for 2 hrs by agarose gel electrophoresis; assay type: functional
[4] = Cytotoxicity against human fibroblasts assessed as cell viability after 72 hrs by MTT assay; assay type: cell-based; conditions: Fibroblast
[5] = system: Vero; assay: Cytotoxicity against african green monkey Vero cells assessed as cell viability after 72 hrs by MTT assay; assay type: cell-based; conditions: Chlorocebus sabaeus
[6] = system: RPMI-8226; assay: Photoprotection against UV light-induced DNA damage in human RPMI8226 cells at 10 mM treated in cream formulation measured for 3 hrs by agarose gel electrophoresis; assay type: functional, cell-based
[7] = Photoprotection against UV light-induced Escherichia coli pEGFP-C1 DNA damage at 10 mM treated in cream formulation measured for 2 hrs by agarose gel electrophoresis; assay type: functional

With `Cc1cn(CCCn2cc(C)c(=O)[nH]c2=O)c(=O)[nH]c1=O` the EC50 [1] was over 100 µM, the EC50 [2] was over 100 µM and the Activity [3] was “Active”. The EC50 [4] was over 100 µM, the EC50 [5] was over 100 µM and the Activity [6] was “Active”. The Activity [7] was “Active”.
